Experimental data published in US10787446B2 (GENENTECH, INC., priority 2015, dated 2020).

The compounds below were run against T1, hNav1.7 and the β1 subunit (Homo sapiens, UniProt Q15858) (assay: Tritiated compound competitive binding to membranes from cells heterologously expressing hNav1.7 and the β1 subunit (LBA)). Settings: competition with 100 pM [3H]compound, 18 h, room temperature; IC50 by 4 parameter logistic model.
T1 construct: expressed in transfected cells
In short: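 Membranes were incubated 18 h at room temperature with 100 pM [3H]-labelled NaV1.7 inhibitor and increasing test compound in 100 mM NaCl, 20 mM Tris HCl, pH 7.4. Bound radioligand was filtered on PEI-soaked GF/C, washed, and counted by scintillation. IC50 from a 4-parameter logistic fit of % inhibition.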

T1 sequence (Q15858 whole entry): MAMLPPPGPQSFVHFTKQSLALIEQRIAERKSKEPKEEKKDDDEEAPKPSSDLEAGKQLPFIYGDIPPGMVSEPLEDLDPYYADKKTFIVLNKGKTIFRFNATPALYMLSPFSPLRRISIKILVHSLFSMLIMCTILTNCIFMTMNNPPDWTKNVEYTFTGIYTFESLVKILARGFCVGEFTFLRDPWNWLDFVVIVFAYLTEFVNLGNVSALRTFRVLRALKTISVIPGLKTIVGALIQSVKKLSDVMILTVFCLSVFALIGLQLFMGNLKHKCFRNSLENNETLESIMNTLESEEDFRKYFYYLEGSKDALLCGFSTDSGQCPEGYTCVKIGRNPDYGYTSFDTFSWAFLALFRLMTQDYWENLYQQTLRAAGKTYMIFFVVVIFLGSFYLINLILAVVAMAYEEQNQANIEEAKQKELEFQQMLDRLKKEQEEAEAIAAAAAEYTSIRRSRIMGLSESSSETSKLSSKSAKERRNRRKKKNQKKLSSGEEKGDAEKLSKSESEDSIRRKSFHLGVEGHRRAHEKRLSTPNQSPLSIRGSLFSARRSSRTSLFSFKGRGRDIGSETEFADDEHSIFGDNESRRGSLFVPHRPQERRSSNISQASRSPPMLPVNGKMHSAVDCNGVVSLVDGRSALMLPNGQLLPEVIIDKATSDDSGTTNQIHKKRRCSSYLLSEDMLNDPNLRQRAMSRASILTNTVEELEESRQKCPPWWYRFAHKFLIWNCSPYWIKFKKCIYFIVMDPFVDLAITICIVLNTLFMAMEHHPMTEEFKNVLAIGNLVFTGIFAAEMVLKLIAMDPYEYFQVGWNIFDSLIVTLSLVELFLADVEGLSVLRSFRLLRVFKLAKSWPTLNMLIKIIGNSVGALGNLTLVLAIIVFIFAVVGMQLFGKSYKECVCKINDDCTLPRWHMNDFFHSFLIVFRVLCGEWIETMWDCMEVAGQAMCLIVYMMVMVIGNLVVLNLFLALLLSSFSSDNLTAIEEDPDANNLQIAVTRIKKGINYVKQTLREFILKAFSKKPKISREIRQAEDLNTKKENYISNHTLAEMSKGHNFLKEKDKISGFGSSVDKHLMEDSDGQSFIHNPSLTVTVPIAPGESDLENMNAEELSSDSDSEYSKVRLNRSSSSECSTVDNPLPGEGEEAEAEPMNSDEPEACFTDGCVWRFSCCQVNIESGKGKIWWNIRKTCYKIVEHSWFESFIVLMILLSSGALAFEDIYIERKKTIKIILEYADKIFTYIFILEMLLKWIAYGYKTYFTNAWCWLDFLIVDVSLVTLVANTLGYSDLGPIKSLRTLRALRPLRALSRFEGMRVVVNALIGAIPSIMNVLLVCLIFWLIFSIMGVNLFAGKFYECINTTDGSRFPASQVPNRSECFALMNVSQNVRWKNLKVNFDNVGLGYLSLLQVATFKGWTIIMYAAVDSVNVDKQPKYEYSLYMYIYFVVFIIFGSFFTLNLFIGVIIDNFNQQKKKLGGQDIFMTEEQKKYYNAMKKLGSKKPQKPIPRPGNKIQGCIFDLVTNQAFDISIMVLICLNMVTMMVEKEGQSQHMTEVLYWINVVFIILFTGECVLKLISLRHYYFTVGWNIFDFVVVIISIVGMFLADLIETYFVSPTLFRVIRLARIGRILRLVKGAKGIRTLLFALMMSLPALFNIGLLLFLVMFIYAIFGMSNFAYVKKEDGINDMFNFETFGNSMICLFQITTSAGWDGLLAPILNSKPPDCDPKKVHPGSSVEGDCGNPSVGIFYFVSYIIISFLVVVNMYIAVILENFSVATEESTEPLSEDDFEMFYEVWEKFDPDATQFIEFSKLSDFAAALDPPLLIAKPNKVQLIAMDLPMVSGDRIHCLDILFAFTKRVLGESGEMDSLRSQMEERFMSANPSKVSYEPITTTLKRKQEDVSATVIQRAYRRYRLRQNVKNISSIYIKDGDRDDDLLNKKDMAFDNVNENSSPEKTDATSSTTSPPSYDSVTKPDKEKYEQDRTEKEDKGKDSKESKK
T1 sequence (Q07699 19-218 partner): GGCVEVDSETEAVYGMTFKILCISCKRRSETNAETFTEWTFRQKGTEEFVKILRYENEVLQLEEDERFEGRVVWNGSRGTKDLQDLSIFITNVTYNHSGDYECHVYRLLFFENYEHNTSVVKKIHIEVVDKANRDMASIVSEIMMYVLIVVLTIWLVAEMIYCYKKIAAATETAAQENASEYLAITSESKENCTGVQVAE

Nav1.7 (LBA) [µM]	SMILES
0.0194	CC(C)(O)[C@H]1CCN([C@H]2CCOc3cc(S(=O)(=O)Nc4ncns4)ccc32)[C@@H](c2ccc(F)cc2)C1 (single isomer, unassigned) [Example 136]
0.158	N#C[C@H]1CCN([C@@H]2CCOc3cc(S(=O)(=O)Nc4ncns4)ccc32)[C@@H](c2ccc(F)cc2)C1 [Example 180, (R)-4-((2R,4S)-4-cyano-2-(4-fluorophenyl)piperidin-1-yl)-N-(1,2,4-thiadiazol-5-yl)chroman-7-sulfonamide]
0.0683	O=S(=O)(Nc1nccs1)c1cc2c(cc1F)[C@H](N1CC[C@H](C(F)(F)F)C[C@@H]1c1ccc(F)cc1)CCO2 [Example 209, (R)-6-fluoro-4-((2R,4S)-2-(4-fluorophenyl)-4-(trifluoromethyl)piperidin-1-yl)-N-(thiazol-2-yl)chromane-7-sulfonamide]
3.31	O=S(=O)(Nc1ncns1)c1ccc2c(c1)OCC[C@@H]2N1CCCC[C@@H]1CCO (single isomer, unassigned) [Example 152]
0.175	O=S(=O)(Nc1ncns1)c1cc(Cl)c(CN2CCCC[C@H]2c2cccnc2)cc1F [Example 70, (S)-5-chloro-2-fluoro-4-((2-(pyridin-3-yl)piperidin-1-yl)methyl)-N-(1,2,4-thiadiazol-5-yl)benzenesulfonamide]
0.00496	O=S(=O)(Nc1ncns1)c1cc2c(cc1F)[C@@H](N1CCCC[C@@H]1c1ccc(F)cc1)CCO2 (racemic) [Example 86, (±)-(S)-6-fluoro-4-((R)-2-(4-fluorophenyl)piperidin-1-yl)-N-(1,2,4-thiadiazol-5-yl)chromane-7-sulfonamide]
0.274	O=S(=O)(Nc1ncns1)c1ccc2c(c1)OCC[C@@H]2N1CCC[C@H]1c1ccccc1 (single isomer, unassigned) [Example 39]
0.00212	CS(=O)(=O)[C@@H]1CCN([C@H]2CCOc3cc(S(=O)(=O)Nc4nccs4)c(F)cc32)[C@H](c2ccc(F)cc2)C1 [Example 166, (S)-6-fluoro-4-((2S,4R)-2-(4-fluorophenyl)-4-(methylsulfonyl)piperidin-1-yl)-N-(thiazol-2-yl)chroman-7-sulfonamide]
0.00584	N#C[C@@H]1CCN([C@H]2CCOc3cc(S(=O)(=O)Nc4ncns4)ccc32)[C@H](c2ccc(F)cc2)C1 [Example 177, (S)-4-((2S,4R)-4-cyano-2-(4-fluorophenyl)piperidin-1-yl)-N-(1,2,4-thiadiazol-5-yl)chroman-7-sulfonamide]
0.00255	O=S(=O)(Nc1ncns1)c1ccc2c(c1)OCC[C@@H]2N1CC[C@H](C(F)F)C[C@@H]1c1ccc(F)cc1 [Example 187, (S)-4-((2R,4S)-4-(difluoromethyl)-2-(4-fluorophenyl)piperidin-1-yl)-N-(1,2,4-thiadiazol-5-yl)chroman-7-sulfonamide]
0.176	O=S(=O)(Nc1ncns1)c1ccc2c(c1)OCC[C@H]2N1CC[C@@H](C(F)(F)F)C[C@H]1c1ccccn1 [Example 191, (R)-4-((2S,4R)-2-(pyridin-2-yl)-4-(trifluoromethyl)piperidin-1-yl)-N-(1,2,4-thiadiazol-5-yl)chroman-7-sulfonamide]
3.98	C[C@H](c1ccc(S(=O)(=O)Nc2ncns2)cc1Cl)N1CCCC[C@H]1c1ccccc1 (single isomer, unassigned) [Example 61]
0.00495	O=S(=O)(Nc1nncs1)c1cc2c(cc1F)[C@@H](N1CC[C@@H](C(F)(F)F)C[C@H]1c1ccc(F)cc1)CCO2 [Example 231, (S)-6-fluoro-4-((2S,4R)-2-(4-fluorophenyl)-4-(trifluoromethyl)piperidin-1-yl)-N-(1,3,4-thiadiazol-2-yl)chroman-7-sulfonamide]
0.269	O=S(=O)(Nc1ncns1)c1ccc2c(c1)CCC[C@@H]2N1CCCC[C@H]1c1ccccc1 (single isomer, unassigned) [Example 52]
2.028	O=S(=O)(Nc1ncns1)c1cc2c(cc1F)[C@H](N1CC[C@@](O)(C(F)(F)F)C[C@H]1c1ccc(F)cc1)CCO2 [Example 171, (R)-6-fluoro-4-((2S,4S)-2-(4-fluorophenyl)-4-hydroxy-4-(trifluoromethyl)piperidin-1-yl)-N-(1,2,4-thiadiazol-5-yl)chroman-7-sulfonamide]
0.000895	O=S(=O)(Nc1ncns1)c1ccc2c(c1)OCC[C@H]2N1CC[C@@H](OC(F)(F)F)C[C@H]1c1ccc(F)cc1 [Example 173, (R)-4-((2S,4R)-2-(4-fluorophenyl)-4-(trifluoromethoxy)piperidin-1-yl)-N-(1,2,4-thiadiazol-5-yl)chroman-7-sulfonamide]
0.282	O=S(=O)(Nc1ncns1)c1ccc2c(c1)OCC[C@H]2N1CC[C@@H](C(F)(F)F)C[C@H]1c1ccn[nH]1 (single isomer, unassigned) [Example 144]
0.538	O=S(=O)(Nc1ncns1)c1cc(F)c(CN2CC[C@H](OC(F)(F)F)C[C@H]2c2ccccc2)cc1F (single isomer, unassigned) [Example 36]
0.18	Cn1nccc1[C@@H]1C[C@H](C(F)(F)F)CCN1[C@@H]1CCOc2cc(S(=O)(=O)Nc3nccs3)c(F)cc21 [Example 159]
0.00853	CS(=O)(=O)[C@@H]1CCN([C@H]2CCOc3cc(S(=O)(=O)Nc4ncns4)ccc32)[C@H](c2ccc(F)cc2)C1 [Example 161, (S)-4-((2S,4R)-2-(4-fluorophenyl)-4-(methylsulfonyl)piperidin-1-yl)-N-(1,2,4-thiadiazol-5-yl)chroman-7-sulfonamide]
0.376	CN(Cc1ccccc1)[C@H]1CCOc2cc(S(=O)(=O)Nc3ncns3)ccc21 [Example 120, (S)-4-(benzyl(methyl)amino)-N-(1,2,4-thiadiazol-5-yl)chroman-7-sulfonamide]
0.203	O=S(=O)(Nc1ncns1)c1ccc2c(c1)OCC[C@H]2N1CCCC[C@H]1c1ccccc1 (single isomer, unassigned) [Example 38]
0.157	O=S(=O)(Nc1ncns1)c1cc(F)c(CN2CC[C@H](F)C[C@@H]2c2ccccc2)cc1F (single isomer, unassigned) [Example 29]
0.0237	O=S(=O)(Nc1ncns1)c1ccc2c(c1)OCC[C@@H]2N1CCCC[C@H]1c1cccnc1 (single isomer, unassigned) [Example 121]
0.072	O=S(=O)(Nc1nccs1)c1ccc2c(c1)OCC[C@@H]2N1CCCC[C@H]1c1ccccc1 (single isomer, unassigned) [Example 102]
1.44	O=S(=O)(Nc1ncns1)c1ccc2c(c1)OCC[C@@H]2N1CCC(C(F)F)CC1 [Example 150, (S)-4-(4-(difluoromethyl)piperidin-1-yl)-N-(1,2,4-thiadiazol-5-yl)chromane-7-sulfonamide]
0.142	Cn1nccc1[C@H]1CCCCN1[C@H]1CCOc2cc(S(=O)(=O)Nc3ncns3)ccc21 [Example 42, (S)-4-((R)-2-(1-methyl-1H-pyrazol-5-yl)piperidin-1-yl)-N-(1,2,4-thiadiazol-5-yl)chromane-7-sulfonamide]
